Results from paper PMC8887552 (The Journal of antibiotics, 2018).
Where no end group is shown, it is not given here.

Assays:
[1] = test system: sheep red blood cells (RBCs); format: cell-based
[2] = test system: X. axonopodis; format: cell-based, Xanthomonas axonopodis; settings: OD 600 after 16 h of growth, serial two-fold dilutions, room temperature, n = 3

Sequence: LSLIAAAGKETIRQYLKNEIKKKGRKAVIAW [Syn-safencin]
- hemolytic activity (in words) [1]: mild hemolytic activity
- MIC [2]: 8 µM
